Data taken from PubChem BioAssay (NCI).
Where “and” joins values, the source holds several entries; their conditions need not be identical. Identical values can stand only once.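 48-hour exposure; five concentrations; linearly interpolated endpoints. GI50 is the concentration that inhibits growth by half. TGI is the concentration that stops growth completely.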

What was measured:
Test in all cases: DTP human tumour cell line panel, 48 h
COLO 205 colon = tested on: COLO 205 colon
OVCAR-8 ovarian = tested on: OVCAR-8 ovarian
SK-OV-3 ovarian = tested on: SK-OV-3 ovarian
RPMI-8226 leukemia = tested on: RPMI-8226 leukemia
HCT-15 colon = tested on: HCT-15 colon
SNB-19 CNS = tested on: SNB-19 CNS
MOLT-4 leukemia = tested on: MOLT-4 leukemia
A549 NSCLC = tested on: A549 NSCLC
HOP-92 NSCLC = tested on: HOP-92 NSCLC
SF-268 CNS = tested on: SF-268 CNS
HS 578T breast = tested on: HS 578T breast

Structure (SMILES)	TGI (COLO 205 colon)	TGI (OVCAR-8 ovarian)	TGI (SK-OV-3 ovarian)	TGI (RPMI-8226 leukemia)	TGI (HCT-15 colon)	TGI (SNB-19 CNS)	TGI (MOLT-4 leukemia)	TGI (A549 NSCLC)	TGI (HOP-92 NSCLC)	TGI (SF-268 CNS)	TGI (HS 578T breast)	GI50 (SK-OV-3 ovarian)	GI50 (RPMI-8226 leukemia)	GI50 (SNB-19 CNS)	GI50 (HOP-92 NSCLC)	GI50 (SF-268 CNS)
Cc1nc2sccn2c1C(=O)NN	> 100 µM	> 100 µM	> 100 µM	> 100 µM	> 100 µM	> 100 µM	> 100 µM	> 100 µM	> 100 µM	> 100 µM	–	–	–	–	–	–
Cc1ccc(CC(Cc2ccccc2C)C(=O)O)c(C(=O)O)c1 (stereo not drawn)	> 100 µM	> 100 µM	–	> 100 µM	> 100 µM	> 100 µM	> 100 µM	> 100 µM	> 100 µM	> 100 µM	> 100 µM	–	–	–	–	–
OC12c3ccccc3C1CCCCC2N1CCCC1 (stereo not drawn)	> 100 µM	> 100 µM	> 100 µM	> 100 µM	> 100 µM	> 100 µM	> 100 µM	> 100 µM	–	> 100 µM	–	–	–	–	–	–
CSc1nc(-c2ccc(Cl)cc2)c(C#N)c(=O)n1C1OC(COC(C)=O)C(OC(C)=O)C(OC(C)=O)C1OC(C)=O (stereo not drawn)	> 100 µM	> 100 µM	70.3 µM and > 100 µM	> 100 µM	> 100 µM	39.4 µM and > 100 µM	> 100 µM	> 100 µM	32 µM and 82.7 µM	55.2 µM and > 100 µM	–	25.3 µM and > 100 µM	34.6 µM and > 100 µM	13.9 µM and > 100 µM	10.4 µM and 4.43 µM	12.4 µM and > 100 µM
CSc1ncnc2c1ncn2CCC(=O)O	> 100 µM	> 100 µM	> 100 µM	> 100 µM	–	> 100 µM	> 100 µM	> 100 µM	> 100 µM	> 100 µM	–	–	–	–	–	–
O=C1/C(=C/c2cccc(Cl)c2)CCCc2ccccc21	38.5 µM	33.6 µM	> 100 µM	42.5 µM	39.2 µM	31.5 µM	53.7 µM	> 100 µM	60.4 µM	33.4 µM	32.9 µM	–	–	–	–	–
CSC1=N/C(=C\c2ccc(Cl)cc2)C(=O)N1CN1CCCCC1	> 100 µM	> 100 µM	> 100 µM	> 100 µM	> 100 µM	–	> 100 µM	> 100 µM	–	> 100 µM	> 100 µM	–	–	–	–	–
COc1ccc2c3c1OC1C(F)C=CC4(O)C(C2)NCCC314 (stereo not drawn)	3.12 µM	14.7 µM	10.3 µM	–	11.1 µM	5.78 µM	3.76 µM	23.1 µM	20.2 µM	6.93 µM	5.83 µM	–	–	–	–	–
COc1cc2cc(OC(C)=O)c3cc4c(cc3c2c(OC)c1OC)OCO4	> 100 µM	> 100 µM	> 100 µM	–	> 100 µM	> 100 µM	> 100 µM	> 100 µM	–	> 100 µM	–	–	–	–	–	–
Cc1ccc(C)n1-c1ccccc1C1C=Cn2c(=O)nnc3c(OC(C)C)c(OC(C)C)c(O)c1c32 (stereo not drawn)	27.7 µM	> 100 µM	> 100 µM	42.4 µM	60.4 µM	> 100 µM	56.5 µM	> 100 µM	> 100 µM	> 100 µM	> 100 µM	–	–	–	–	–
COc1ccc(CNc2cnc3cc(N)ccc3n2)cc1	> 100 µM	> 100 µM	–	> 100 µM	> 100 µM	> 100 µM	> 100 µM	> 100 µM	–	> 100 µM	–	–	–	–	–	–
COc1cc(/C=C2\C(=O)N(C(=O)Cc3ccccc3)N=C2C)cc(OC)c1OC	> 100 µM	> 100 µM	–	> 100 µM	> 100 µM	> 100 µM	> 100 µM	> 100 µM	–	> 100 µM	–	–	–	–	–	–
CC(C)(O)C(O)COc1c2c(cc3oc(=O)ccc13)OCO2 (stereo not drawn)	> 100 µM	> 100 µM	> 100 µM	> 100 µM	> 100 µM	> 100 µM	> 100 µM	> 100 µM	> 100 µM	> 100 µM	–	–	–	–	–	–
COc1cc(C2C(Cl)C(=O)N2NC(=O)Cc2ccccc2)cc(Br)c1O (stereo not drawn)	> 100 µM	> 100 µM	> 100 µM	> 100 µM	> 100 µM	> 100 µM	> 100 µM	> 100 µM	–	> 100 µM	–	–	–	–	–	–
COC(=O)[C@]12CC3C=CC1N(C3)C(CBr)c1c2n(S(=O)(=O)c2ccccc2)c2ccccc12 (stereo partly drawn)	> 100 µM	> 100 µM	> 100 µM	23.5 µM	> 100 µM	–	–	> 100 µM	–	–	> 100 µM	–	–	–	–	–
C=C(C)C12CC3CC(/C(=N/O)C(C1)/C3=N\O)[C@@]2(C)O (stereo partly drawn)	> 100 µM	> 100 µM	> 100 µM	> 100 µM	> 100 µM	> 100 µM	> 100 µM	> 100 µM	–	> 100 µM	–	–	–	–	–	–
CC(C)[N+]([O-])(CCCNc1c2ccccc2nc2cccc([N+](=O)[O-])c12)C(C)C	0.0577 µM	0.628 µM	2.08 µM	0.0875 µM	1.58 µM	5.17 µM	–	2.53 µM	0.196 µM	3.14 µM	0.402 µM	–	–	–	–	–
COc1cccc2c1c1ccc3c(c1n2C)C(=O)C=CC3=O	19.6 µM	29.7 µM	> 100 µM	11.6 µM	31.8 µM	> 100 µM	8.65 µM	> 100 µM	25.9 µM	33.6 µM	–	–	–	–	–	–
